Data set [1] is described as follows: Fine particle fraction of salbutamol sulphate blended with Lactochem lactose (Example 7). As to conditions: after blending with Lactochem lactose. Type of data set: physicochemical.
A short description of data set [2]: Mass median diameter of salbutamol sulphate particles. Type of data set: physicochemical.

2 substances from patent publication US20030118514A1, “Compositions for inhalation” (Glaxo Wellcome Inc., priority 1998, published 2003) can be followed below.

Like-named read-outs stand apart in the source and are kept apart here.

Take “salbutamol sulphate [recrystallised salbutamol sulphate]”: in data set [1], the “fine particle fraction (<6.4 μm)” value is recorded as 22.8 % recovered dose. In data set [2] (listed as elongated crystals (needle shaped) of salbutamol sulphate), this substance gave a mass median diameter of 5.49 μm.
Consider “salbutamol sulphate [micronised salbutamol sulphate]”, for which the “fine particle fraction (<6.4 μm)” value in data set [1] is reported as 10.8 % recovered dose. The mass median diameter in data set [2] came to 4.79 μm.
